In patent US5157049A, “Method of treating cancers sensitive to treatment with water soluble derivatives of taxol” (The United States of America as represented by the …, priority 1991, dated 1992):
“Also recorded” adds a separate entry of the source. Where a name gives a salt, the structure may show the parent alone.

Assays:
Aqueous solubility = details: water
B16 Melanoma = test: Antitumor activity in the B16 melanoma system (NCI screen); details: for % T/C (median lifetime) / cures (live animals day 60) / Survivors Day 4 / WT Diff, g (T - C): B16, Q01D × 09; for antitumor activity (in words): summary statements on in vivo screening, Table VI
Experimental: (§1) Another approach to make basic derivatives is based on the concept of taking an existing hydrolysable derivative and further modifying it to form a derivative that allows for stepwise hydrolysis.
Antitumor Activity in the B16 Melanoma System^a
(§2) ^a Screening was carried out under the auspices of the National Cance
(§3) Institute. For detailed explanations of procedures and data, see
(§4) Instruction 14, Screening Data Summary Interpretation and Outline of
(§5) Current Screen, Drug Evaluation Branch, Developmental Therapeutics
(§6) Program, Division of Cancer Treatment, National Cancer Institute,
(§7) Bethesda, Maryland 20892.
(§8) ^b Q01D × 09. Single dose for 9 days; given in milligrams per
(§9) kilogram body weight per injection.
(§10) ^c Abbreviations: survivors day 4, live animals on the fourth day of
(§11) testing/total animal; wt diff, g (T - C), the difference in body weight i
(§12) grams between test and control animals; % T/C, the median lifetime of tes
(§13) animals divided by the median lifetime of control animals, times 100; for
(§14) the solid tumor system % T/C is 100 × (change in treated tumor wt 1
(§15) day 11 - day 0)/change in control tumor wt.) if the tumor grows or 100
(§16) × (change in treated tumor wt./initial treated tumor wt.) if the
(§17) tumor regresses; cures, number of live animals on the last day of
(§18) evaluation for the B16 melanoma system (day 60) or number of animals
(§19) without measurable tumor on day 11 for the MX1 mammary tumor system.

[1] = a number of test systems; cited from earlier work
tubulin = details: mechanism of action, Horwitz; cited from earlier work
[2] = numerous studies; cited from earlier work
[3] = water; background statement; cited from earlier work
[4] = test system: Human MX-1 Mammary Tumor Xenograft; test: Human MX-1 mammary tumor xenograft (3MBG5) assay; details: MX-1 xenograft; for % T/C (tumor weight change): day 11
Experimental: as §1, §2, §3, §4, §5, §6, §7, §8, §9, §10, §11, §12, §13, §14, §15, §16, §17, §18, §19

[5] = 7 mg/kg (so in the source) per injection

For CC(=O)O[C@H]1C(=O)[C@@]2(C)[C@H]([C@H](OC(=O)c3ccccc3)[C@]3(O)C[C@H](OC(=O)[C@H](OC(=O)CCC(=O)O)[C@@H](NC(=O)c4ccccc4)c4ccccc4)C(C)=C1C3(C)C)[C@]1(OC(C)=O)CO[C@@H]1C[C@@H]2O [Example 8, 2'-Succinyltaxol, Triethanolamine Salt], the aqueous solubility (Aqueous solubility) was “about 1%”, the “aqueous solubility (in words)” value (Aqueous solubility) was “greatly improved aqueous solubility; also recorded: although still soluble, the solutions were not clear and became very viscous” and the “% T/C (median lifetime)” value (B16 Melanoma; 6.75 mg/kg per injection) was 230%. For the same compound, the “cures (live animals day 60)” value (B16 Melanoma; 6.75 mg/kg per injection) was 1, the “% T/C (median lifetime)” value (B16 Melanoma; [5]) was 314% and the “cures (live animals day 60)” value (B16 Melanoma; [5]) was 3. For the same compound, the “% T/C (median lifetime)” value (B16 Melanoma; 13.5 mg/kg per injection) was 264%, the “cures (live animals day 60)” value (B16 Melanoma; 13.5 mg/kg per injection) was 1 and the “% T/C (median lifetime)” value (B16 Melanoma; 54 mg/kg per injection) was “TOXIC”. For the same compound, the “antitumor activity (in words)” value (B16 Melanoma) was “much more active than the compound of Example 12; also recorded: especially active and potent”.
For CC(=O)O[C@H]1C(=O)[C@@]2(C)[C@H]([C@H](OC(=O)c3ccccc3)[C@]3(O)C[C@H](OC(=O)[C@H](OC(=O)CCC(=O)O)[C@@H](NC(=O)c4ccccc4)c4ccccc4)C(C)=C1C3(C)C)[C@]1(OC(C)=O)CO[C@@H]1C[C@@H]2O [Example 11], the aqueous solubility (Aqueous solubility) was “about 1%”, the “aqueous solubility (in words)” value (Aqueous solubility) was “greatly improved aqueous solubility; also recorded: although still soluble, the solutions were not clear and became very viscous” and the “% T/C (median lifetime)” value (B16 Melanoma; 6.25 mg/kg per injection) was 125%. The “% T/C (median lifetime)” value (B16 Melanoma; 12.5 mg/kg per injection) was 134%, the “% T/C (median lifetime)” value (B16 Melanoma; 25 mg/kg per injection) was 176% and the “% T/C (median lifetime)” value (B16 Melanoma; 50 mg/kg per injection) was 241%. For the same compound, the “antitumor activity (in words)” value (B16 Melanoma) was “much more active than the compound of Example 12”.
In the case of CC(=O)O[C@H]1C(=O)[C@@]2(C)[C@H]([C@H](OC(=O)c3ccccc3)[C@]3(O)C[C@H](OC(=O)[C@H](O)[C@@H](NC(=O)c4ccccc4)c4ccccc4)C(C)=C1C3(C)C)[C@]1(OC(C)=O)CO[C@@H]1C[C@@H]2O [Taxol, taxol], the “in vivo activity (in words)” value [1] is listed as “strong in vivo activity”, the “promotion of tubulin assembly (in words)” value (tubulin) is listed as “promoting tubulin assembly into stable aggregated structures which resist depolymerization by dilution, calcium ion, cold, and a number of microtubule-disrupting drugs” and the “% T/C (median lifetime)” value (B16 Melanoma; 5 mg/kg per injection) is listed as 175%. For the same compound, the “Survivors Day 4” value (B16 Melanoma; 5 mg/kg per injection) was 10/10, the “WT Diff, g (T - C)” value (B16 Melanoma; 5 mg/kg per injection) was -0.2 g and the “% T/C (median lifetime)” value (B16 Melanoma; 10 mg/kg per injection) was 139%. For the same compound, the “Survivors Day 4” value (B16 Melanoma; 10 mg/kg per injection) was 10/10, the “WT Diff, g (T - C)” value (B16 Melanoma; 10 mg/kg per injection) was 0 g and the “% T/C (median lifetime)” value (B16 Melanoma; 20 mg/kg per injection) was 96%. For the same compound, the “Survivors Day 4” value (B16 Melanoma; 20 mg/kg per injection) was 10/10, the “WT Diff, g (T - C)” value (B16 Melanoma; 20 mg/kg per injection) was -0 g and the “% T/C (median lifetime)” value (B16 Melanoma; 40 mg/kg per injection) was “TOXIC”. The “Survivors Day 4” value (B16 Melanoma; 40 mg/kg per injection) was 10/10, the “WT Diff, g (T - C)” value (B16 Melanoma; 40 mg/kg per injection) was -1.2 g and the “cytotoxicity (in words)” value [2] was “highly cytotoxic”. The “aqueous solubility of taxol (in words)” value [3] was “essentially insoluble in water; also recorded: extremely low aqueous solubility”.
With CC(=O)O[C@H]1C(=O)[C@@]2(C)[C@H]([C@H](OC(=O)c3ccccc3)[C@]3(O)C[C@H](OC(=O)[C@H](OC(=O)CCCC(=O)NCCCN(C)C)[C@@H](NC(=O)c4ccccc4)c4ccccc4)C(C)=C1C3(C)C)[C@]1(OC(C)=O)CO[C@@H]1C[C@@H]2O [Example 25, HCl-Salt] the “aqueous solubility (in words)” value (Aqueous solubility) was “good solubility”, the solubility (Aqueous solubility) was roughly 10000 µg/mL and the “Survivors Day 4” value ([4]; 2.5 mg/kg per injection) was 6/6. For the same compound, the “WT Diff, g (T - C)” value ([4]; 2.5 mg/kg per injection) was -0.6 g, the “% T/C (tumor weight change)” value ([4]; 2.5 mg/kg per injection) was 22% and the “Survivors Day 4” value ([4]; 5 mg/kg per injection) was 6/6. The “WT Diff, g (T - C)” value ([4]; 5 mg/kg per injection) was 0.1 g, the “% T/C (tumor weight change)” value ([4]; 5 mg/kg per injection) was 1% and the “Survivors Day 4” value ([4]; 10 mg/kg per injection) was 6/6. For the same compound, the “WT Diff, g (T - C)” value ([4]; 10 mg/kg per injection) was -2.2 g, the “% T/C (tumor weight change)” value ([4]; 10 mg/kg per injection) was 1% and the “Survivors Day 4” value ([4]; 20 mg/kg per injection) was 5/6. The “WT Diff, g (T - C)” value ([4]; 20 mg/kg per injection) was 0.3 g, the “cures (animals without measurable tumor on day 11)” value ([4]; 20 mg/kg per injection) was 5 and the “% T/C (tumor weight change)” value ([4]; 20 mg/kg per injection, negative = regression) was -100%. For the same compound, the “Survivors Day 4” value ([4]; 40 mg/kg per injection) was 5/6, the “WT Diff, g (T - C)” value ([4]; 40 mg/kg per injection) was -5.9 g and the “cures (animals without measurable tumor on day 11)” value ([4]; 40 mg/kg per injection) was 5. The “% T/C (tumor weight change)” value ([4]; 40 mg/kg per injection, negative = regression) was -100%, the “% T/C (median lifetime)” value (B16 Melanoma; 1.2 mg/kg per injection) was 123% and the “Survivors Day 4” value (B16 Melanoma; 1.2 mg/kg per injection) was 10/10. The “WT Diff, g (T - C)” value (B16 Melanoma; 1.2 mg/kg per injection) was -0.1 g, the “% T/C (median lifetime)” value (B16 Melanoma; 2.5 mg/kg per injection) was 129% and the “Survivors Day 4” value (B16 Melanoma; 2.5 mg/kg per injection) was 10/10. The “WT Diff, g (T - C)” value (B16 Melanoma; 2.5 mg/kg per injection) was -0.1 g, the “% T/C (median lifetime)” value (B16 Melanoma; 5 mg/kg per injection) was 188% and the “Survivors Day 4” value (B16 Melanoma; 5 mg/kg per injection) was 10/10. The “WT Diff, g (T - C)” value (B16 Melanoma; 5 mg/kg per injection) was 0.1 g, the “% T/C (median lifetime)” value (B16 Melanoma; 10 mg/kg per injection) was 352% and the “Survivors Day 4” value (B16 Melanoma; 10 mg/kg per injection) was 10/10. For the same compound, the “WT Diff, g (T - C)” value (B16 Melanoma; 10 mg/kg per injection) was -0.1 g, the “cures (live animals day 60)” value (B16 Melanoma; 10 mg/kg per injection) was 5 and the “% T/C (median lifetime)” value (B16 Melanoma; 20 mg/kg per injection) was 352%. For the same compound, the “Survivors Day 4” value (B16 Melanoma; 20 mg/kg per injection) was 10/10, the “WT Diff, g (T - C)” value (B16 Melanoma; 20 mg/kg per injection) was 0 g and the “cures (live animals day 60)” value (B16 Melanoma; 20 mg/kg per injection) was 6.
In the case of CC(=O)O[C@H]1C(=O)[C@]2(C)[C@@H](OC(=O)CCC(=O)O)C[C@H]3OC[C@@]3(OC(C)=O)[C@H]2[C@H](OC(=O)c2ccccc2)[C@]2(O)C[C@H](OC(=O)[C@H](OC(=O)CCC(=O)O)[C@@H](NC(=O)c3ccccc3)c3ccccc3)C(C)=C1C2(C)C [Example 2, 2'7-Disuccinyltaxol], the “aqueous solubility (in words)” value (Aqueous solubility) is reported as “not water soluble”, the “% T/C (median lifetime)” value (B16 Melanoma; 1 mg/kg (so in the source) per injection) is reported as 124% and the “% T/C (median lifetime)” value (B16 Melanoma; 2.75 mg/kg per injection) is reported as 109%. The “% T/C (median lifetime)” value (B16 Melanoma; 5.5 mg/kg per injection) was 113%, the “% T/C (median lifetime)” value (B16 Melanoma; 22 mg/kg per injection) was 105% and the “% T/C (median lifetime)” value (B16 Melanoma; 44 mg/kg per injection) was 114%. For the same compound, the “antitumor activity (in words)” value (B16 Melanoma) was “considerably less active than the corresponding 2'-mono derivative of Example 1 and its salts”.
For CC(=O)O[C@H]1C(=O)[C@]2(C)[C@@H](OC(=O)CCC(=O)O)C[C@H]3OC[C@@]3(OC(C)=O)[C@H]2[C@H](OC(=O)c2ccccc2)[C@]2(O)C[C@H](OC(=O)[C@H](OC(=O)CCC(=O)O)[C@@H](NC(=O)c3ccccc3)c3ccccc3)C(C)=C1C2(C)C [Example 2, Na-Salt], the solubility (Aqueous solubility; aqueous solubility) was roughly 3000 µg/mL, the “% T/C (median lifetime)” value (B16 Melanoma; 2.75 mg/kg per injection, listed as 2, Na-Salt) was 120% and the “% T/C (median lifetime)” value (B16 Melanoma; 5.5 mg/kg per injection, listed as 2, Na-Salt) was 114%. For the same compound, the “% T/C (median lifetime)” value (B16 Melanoma; 11 mg/kg per injection) was 149%, the “% T/C (median lifetime)” value (B16 Melanoma; 22 mg/kg per injection, listed as 2, Na-Salt) was 109% and the “% T/C (median lifetime)” value (B16 Melanoma; 44 mg/kg per injection, listed as 2, Na-Salt) was 166%. For the same compound, the “antitumor activity (in words)” value (B16 Melanoma; listed as 2, sodium salt) was “improved antitumor activity as compared to the free acid; also recorded: considerably less active than the corresponding 2'-mono derivative of Example 1 and its salts”.
